In ChEMBL document CHEMBL1782039, “Discovery of ((1S,3R)-1-isopropyl-3-((3S,4S)-3-methoxy-tetrahydro-2H-pyran-4-ylamino)cyclopentyl)(4-(5-(trifluoromethyl)pyridazin-3-yl)piperazin-1-yl)methanone, PF-4254196, a CCR2 antagonist with an improved cardiovascular profile” (Bioorg Med Chem Lett, 2011):

Key:
[1] = Half life in rat; type: ADME, organism-based; conditions: in vivo
in vivo = conditions: rat, brain and plasma
[2] = Intrinsic clearance in human liver microsomes; type: ADME, Microsome
[3] = Blood clearance in rat; type: ADME, organism-based; conditions: whole blood
[4] = Lipophilicity, log D of the compound at pH 7.4; type: physicochemical; conditions: buffer
[5] = Bioavailability in rat at 1 mg/kg, po and iv; type: ADME, organism-based; conditions: in vivo

Compound	microsomal CLint [2]	logD [4]	other results
CO[C@@H]1COCC[C@@H]1N[C@@H]1CC[C@@](C(=O)N2CCN(c3cc(C(F)(F)F)ccn3)CC2)(C(C)C)C1	9.3 µL/min/mg	–	half-life [1]: 3.9 h; Kp (in vivo): 3; clearance [3]: 33.8 mL/min/kg
CO[C@@H]1COCC[C@@H]1N(C)[C@@H]1CC[C@@](C(=O)N2CCN(c3cc(C(F)(F)F)ccn3)CC2)(C(C)C)C1	58 µL/min/mg	–	–
CO[C@@H]1COCC[C@@H]1N[C@@H]1CC[C@@](C(=O)N2CCN(c3ccnc(C(F)(F)F)c3)CC2)(C(C)C)C1	< 7 µL/min/mg	0.7	–
CO[C@@H]1COCC[C@@H]1N[C@@H]1CC[C@@](C(=O)N2CCN(c3cc(C(F)(F)F)cnn3)CC2)(C(C)C)C1	< 7 µL/min/mg	0.5	bioavailability [5]: 50%
CC(C)[C@]1(C(=O)N2CCN(c3cc(C(F)(F)F)ccn3)CC2)CC[C@@H](N2CCC3COCCC32)C1 (stereo in doubt; 22)	< 7 µL/min/mg	–	–
CC(C)[C@]1(C(=O)N2CCN(c3cc(C(F)(F)F)cnn3)CC2)CC[C@@H](NC2C3CCCC2COC3)C1 (stereo in doubt; 27)	58 µL/min/mg	–	–
